Measured values as given in article PMC12669040, “Tumour-specific STING agonist synthesis via a two-component prodrug system” (Nature Chemistry, 2025).
Values joined by “and” are separate entries in the source; they are usually repeats but may differ in a detail not shown here. Identical values can stand only once.

Assays:
[1] = Colorimetric alkylation rate constant assay with thiol N1; assay type: physicochemical; conditions: for remaining [A]: N1 from calibration curve (N1 in uM); for remaining [A] / remaining [B]: in µM
[2] = Colorimetric alkylation rate constant assay with TNB^2− as non-specific thiol; assay type: physicochemical; set-up: second-order: unit not given here; conditions: for remaining [B]: in µM
[3] = Time 2891 sec, [B]0 = 250, Replicates 1-3
[4] = Time 3071 sec, [B]0 = 250, Replicates 1-3
[5] = Time 3252 sec, [B]0 = 250, Replicates 1-3
[6] = Time 3433 sec, [B]0 = 250, Replicates 1-3
[7] = Time 3613 sec, [B]0 = 250, Replicates 1-3

- remaining [A] ([1]; Replicate 1, time 576 sec): 80.4651
- remaining [B] ([1]; Replicate 1, time 576 sec, [B]0 = 250): 226.345
- remaining [A] ([1]; Replicate 1, time 606 sec): 79.6386
- remaining [B] ([1]; Replicate 1, time 606 sec, [B]0 = 250): 225.519
- remaining [A] ([1]; Replicate 2, time 576 sec): 80.4092
- remaining [B] ([1]; Replicate 2, time 576 sec, [B]0=250): 227.268
- remaining [A] ([1]; Replicate 2, time 606 sec): 79.1621
- remaining [B] ([1]; Replicate 2, time 606 sec, [B]0=250): 226.02
- remaining [A] ([1]; Replicate 3, time 576 sec): 81.6859
- remaining [B] ([1]; Replicate 3, time 576 sec, [B]0=250): 227.139
- remaining [A] ([1]; Replicate 3, time 606 sec): 80.8202
- remaining [B] ([1]; Replicate 3, time 606 sec, [B]0=250): 226.273
- remaining [B] ([1]; time 0 sec, [B]0 = 250, replicates 1-3): 247.836 and 246.58 and 246.712
- remaining [B] ([1]; time 30 sec, [B]0 = 250, replicates 1-3): 246.591 and 244.557 and 245.38
- remaining [B] ([1]; time 60 sec, [B]0 = 250, replicates 1-3): 244.968 and 243.73 and 244.048
- remaining [B] ([1]; time 91 sec, [B]0 = 250, replicates 1-3): 243.804 and 242.562 and 242.8
- remaining [B] ([1]; time 121 sec, [B]0 = 250, replicates 1-3): 243.047 and 241.251 and 241.752
- remaining [B] ([1]; time 151 sec, [B]0 = 250, replicates 1-3): 242.371 and 240.196 and 240.873
- remaining [B] ([1]; time 182 sec, [B]0 = 250, replicates 1-3): 241.478 and 239.142 and 240.023
- remaining [B] ([1]; time 212 sec, [B]0 = 250, replicates 1-3): 240.882 and 238.087 and 239.314
- remaining [B] ([1]; time 242 sec, [B]0 = 250, replicates 1-3): 239.746 and 237.004 and 238.605
- remaining [B] ([1]; time 273 sec, [B]0 = 250, replicates 1-3): 238.772 and 235.921 and 237.868
- remaining [B] ([1]; time 303 sec, [B]0 = 250, replicates 1-3): 237.095 and 234.981 and 237.103
- remaining [B] ([1]; time 333 sec, [B]0 = 250, replicates 1-3): 235.255 and 233.898 and 236.026
- remaining [B] ([1]; time 364 sec, [B]0 = 250, replicates 1-3): 234.038 and 233.014 and 234.41
- remaining [B] ([1]; time 394 sec, [B]0 = 250, replicates 1-3): 232.874 and 231.988 and 233.73
- remaining [B] ([1]; time 424 sec, [B]0 = 250, replicates 1-3): 231.738 and 230.934 and 232.256
- remaining [B] ([1]; time 454 sec, [B]0 = 250, replicates 1-3): 230.764 and 230.107 and 231.378
- remaining [B] ([1]; time 485 sec, [B]0 = 250, replicates 1-3): 229.871 and 229.167 and 230.13
- remaining [B] ([1]; time 515 sec, [B]0 = 250, replicates 1-3): 228.978 and 228.226 and 228.94
- remaining [B] ([1]; time 545 sec, [B]0 = 250, replicates 1-3): 227.95 and 227.314 and 227.948
- remaining [B] ([2]; Replicate 1, 723 sec, [B]0 = 250): 243.908
- remaining [B] ([2]; Replicate 1, 903 sec, [B]0 = 250): 243.568
- remaining [B] ([2]; Replicate 1, 1084 sec, [B]0 = 250): 243.228
- remaining [B] ([2]; Replicate 1, 1265 sec, [B]0 = 250): 242.9
- remaining [B] ([2]; Replicate 1, 1445 sec, [B]0 = 250): 242.598
- remaining [B] ([2]; Replicate 1, 1626 sec, [B]0 = 250): 242.232
- remaining [B] ([2]; Replicate 1, 1806 sec, [B]0 = 250): 241.905
- remaining [B] ([2]; Replicate 1, 1988 sec, [B]0 = 250): 241.539
- remaining [B] ([2]; Replicate 1, 2168 sec, [B]0 = 250): 241.224
- remaining [B] ([2]; Replicate 1, 2349 sec, [B]0 = 250): 240.884
- remaining [B] ([2]; Replicate 1, 2530 sec, [B]0 = 250): 240.607
- remaining [B] ([2]; Replicate 1, 2710 sec, [B]0 = 250): 240.229
- remaining [B] ([2]; Replicate 2, 542 sec, [B]0=250): 245.363
- remaining [B] ([2]; Replicate 2, 723 sec, [B]0=250): 245.048
- remaining [B] ([2]; Replicate 2, 903 sec, [B]0=250): 244.733
- remaining [B] ([2]; Replicate 2, 1084 sec, [B]0=250): 244.393
- remaining [B] ([2]; Replicate 2, 1265 sec, [B]0=250): 244.09
- remaining [B] ([2]; Replicate 2, 1445 sec, [B]0=250): 243.737
- remaining [B] ([2]; Replicate 2, 1626 sec, [B]0=250): 243.435
- remaining [B] ([2]; Replicate 2, 1806 sec, [B]0=250): 243.107
- remaining [B] ([2]; Replicate 2, 1988 sec, [B]0=250): 242.78
- remaining [B] ([2]; Replicate 2, 2168 sec, [B]0=250): 242.452
- remaining [B] ([2]; Replicate 2, 2349 sec, [B]0=250): 242.137
- remaining [B] ([2]; Replicate 2, 2530 sec, [B]0=250): 241.772
- remaining [B] ([2]; Replicate 2, 2710 sec, [B]0=250): 241.469
- remaining [B] ([2]; Replicate 3, 723 sec, [B]0=250): 245.156
- remaining [B] ([2]; Replicate 3, 903 sec, [B]0=250): 244.866
- remaining [B] ([2]; Replicate 3, 1084 sec, [B]0=250): 244.475
- remaining [B] ([2]; Replicate 3, 1265 sec, [B]0=250): 244.311
- remaining [B] ([2]; Replicate 3, 1445 sec, [B]0=250): 243.732
- remaining [B] ([2]; Replicate 3, 1626 sec, [B]0=250): 243.593
- remaining [B] ([2]; Replicate 3, 1806 sec, [B]0=250): 243.165
- remaining [B] ([2]; Replicate 3, 1988 sec, [B]0=250): 242.824
- remaining [B] ([2]; Replicate 3, 2168 sec, [B]0=250): 242.61
- remaining [B] ([2]; Replicate 3, 2349 sec, [B]0=250): 242.232
- remaining [B] ([2]; Replicate 3, 2530 sec, [B]0=250): 241.917
- remaining [B] ([2]; Replicate 3, 2710 sec, [B]0=250): 241.653
- remaining [B] [2, 3]: 241.388 and 239.977 and 241.154
- remaining [B] [2, 4]: 240.909 and 239.662 and 240.814
- remaining [B] [2, 5]: 240.708 and 239.321 and 240.524
- remaining [B] [2, 6]: 240.418 and 238.994 and 240.184
- remaining [B] [2, 7]: 240.077
SMILES: O=C(CCl)Nc1ccccc1 [Compound C2]
- second-order ([1]; Replicate 1, time 576 sec, second-order plot value): 0.001085
- second-order ([1]; Replicate 1, time 606 sec, second-order plot value): 0.001131
- second-order ([1]; Replicate 2, time 576 sec, second-order plot value): 0.001046
- second-order ([1]; Replicate 2, time 606 sec, second-order plot value): 0.001115
- second-order ([1]; Replicate 3, time 576 sec, second-order plot value): 0.001037
- second-order ([1]; Replicate 3, time 606 sec, second-order plot value): 0.001084
- second-order ([1]; time 0 sec, replicates 1-3): 0.0001305 and 8.4046e-5 and 0.0001345
- second-order ([1]; time 30 sec, replicates 1-3): 0.000185 and 0.0001335 and 0.0002172
- second-order ([1]; time 60 sec, replicates 1-3): 0.0002407 and 0.0001994 and 0.0002516
- second-order ([1]; time 91 sec, replicates 1-3): 0.0002937 and 0.0002475 and 0.000301
- second-order ([1]; time 121 sec, replicates 1-3): 0.0003391 and 0.0002792 and 0.0003575
- second-order ([1]; time 151 sec, replicates 1-3): 0.0003777 and 0.0003079 and 0.0004037
- second-order ([1]; time 182 sec, replicates 1-3): 0.0004154 and 0.0003461 and 0.0004506
- second-order ([1]; time 212 sec, replicates 1-3): 0.0004473 and 0.0003719 and 0.0004982
- second-order ([1]; time 242 sec, replicates 1-3): 0.0004795 and 0.0004218 and 0.000548
- second-order ([1]; time 273 sec, replicates 1-3): 0.0005133 and 0.0004652 and 0.0005985
- second-order ([1]; time 303 sec, replicates 1-3): 0.0005489 and 0.0005414 and 0.0006431
- second-order ([1]; time 333 sec, replicates 1-3): 0.0005997 and 0.0006273 and 0.0006953
- second-order ([1]; time 364 sec, replicates 1-3): 0.0006774 and 0.0006854 and 0.0007385
- second-order ([1]; time 394 sec, replicates 1-3): 0.0007107 and 0.0007421 and 0.0007895
- second-order ([1]; time 424 sec, replicates 1-3): 0.0007842 and 0.0007984 and 0.0008427
- second-order ([1]; time 454 sec, replicates 1-3): 0.0008288 and 0.0008475 and 0.000885
- second-order ([1]; time 515 sec, replicates 1-3): 0.0009559 and 0.0009395 and 0.0009836
- second-order ([1]; time 545 sec, replicates 1-3): 0.001009 and 0.0009937 and 0.001032
- second-order [2, 3]: 0.0003773 and 0.0003667 and 0.0004313
- second-order [2, 4]: 0.0003928 and 0.0003885 and 0.000446
- second-order [2, 5]: 0.0004061 and 0.0003977 and 0.0004618
- second-order [2, 6]: 0.0004218 and 0.000411 and 0.0004772
- second-order [2, 7]: 0.0004369 and 0.0004267 and 0.0004915
- second-order ([2]; Time 3794 sec, [B]0 = 250, Replicates 1-3): 0.0004533 and 0.0004448 and 0.000507
- second-order ([2]; Time 3974 sec, [B]0 = 250, Replicates 1-3): 0.0004675 and 0.0004536 and 0.0005214
- second-order ([2]; Time 4155 sec, [B]0 = 250, Replicates 1-3): 0.0004823 and 0.0004725 and 0.0005334
- second-order ([2]; Time 4336 sec, [B]0 = 250, Replicates 1-3): 0.0004965 and 0.0004915 and 0.0005528
- second-order ([2]; Time 4516 sec, [B]0 = 250, Replicates 1-3): 0.0005127 and 0.0005034 and 0.0005668
- second-order ([2]; Time 4697 sec, [B]0 = 250, Replicates 1-3): 0.0005253 and 0.000516 and 0.0005808
- second-order ([2]; Time 4878 sec, [B]0 = 250, Replicates 1-3): 0.000541 and 0.0005322 and 0.0005962
- second-order ([2]; Time 5058 sec, [B]0 = 250, Replicates 1-3): 0.0005592 and 0.0005485 and 0.0006085
- second-order ([2]; Time 5239 sec, [B]0 = 250, Replicates 1-3): 0.0005708 and 0.0005619 and 0.0006247
- second-order ([2]; Time 5419 sec, [B]0 = 250, Replicates 1-3): 0.0005891 and 0.0005723 and 0.0006371
- second-order ([2]; Time 5600 sec, [B]0 = 250, Replicates 1-3): 0.0006027 and 0.0005925 and 0.000654
- second-order ([2]; Time 5781 sec, [B]0 = 250, Replicates 1-3): 0.0006182 and 0.000611 and 0.0006672
- second-order ([2]; Time 5961 sec, [B]0 = 250, Replicates 1-3): 0.0006343 and 0.000624 and 0.0006855
